This experiment concerns MCF7. As to the kind of experiment: Cytotoxic concentration against MCF-7 cells was determined. The class given is functional, cell-based. Conditions: Homo sapiens.

As usually defined, the IC50 is the concentration needed to halve the response being measured. As to `O=C(/C=C/c1ccc(Br)cc1)c1ccccc1O`, half-maximal inhibition (IC50) required 12.3 µM.

The values above are taken from ChEMBL document CHEMBL1135340, “Efficient liquid-phase synthesis of 2'-hydroxychalcones” (Bioorg Med Chem Lett, 2002).
